Measurements reported in patent US10988524B2, “Modified relaxin B chain peptides and their therapeutic use” (priority 2018, dated 2021).
Non-standard residues stand in square brackets, D forms with d. Residues, ends and D or L forms follow the SMILES beside them. αMeS = C[C@](N)(CO)C(=O)O; Nle = CCCC[C@H](N)C(=O)O; Aib = CC(C)(N)C(=O)O

Target: T1, RXFP1 (Homo sapiens, UniProt Q9HBX9)
T1 sequence (Q9HBX9 1-757): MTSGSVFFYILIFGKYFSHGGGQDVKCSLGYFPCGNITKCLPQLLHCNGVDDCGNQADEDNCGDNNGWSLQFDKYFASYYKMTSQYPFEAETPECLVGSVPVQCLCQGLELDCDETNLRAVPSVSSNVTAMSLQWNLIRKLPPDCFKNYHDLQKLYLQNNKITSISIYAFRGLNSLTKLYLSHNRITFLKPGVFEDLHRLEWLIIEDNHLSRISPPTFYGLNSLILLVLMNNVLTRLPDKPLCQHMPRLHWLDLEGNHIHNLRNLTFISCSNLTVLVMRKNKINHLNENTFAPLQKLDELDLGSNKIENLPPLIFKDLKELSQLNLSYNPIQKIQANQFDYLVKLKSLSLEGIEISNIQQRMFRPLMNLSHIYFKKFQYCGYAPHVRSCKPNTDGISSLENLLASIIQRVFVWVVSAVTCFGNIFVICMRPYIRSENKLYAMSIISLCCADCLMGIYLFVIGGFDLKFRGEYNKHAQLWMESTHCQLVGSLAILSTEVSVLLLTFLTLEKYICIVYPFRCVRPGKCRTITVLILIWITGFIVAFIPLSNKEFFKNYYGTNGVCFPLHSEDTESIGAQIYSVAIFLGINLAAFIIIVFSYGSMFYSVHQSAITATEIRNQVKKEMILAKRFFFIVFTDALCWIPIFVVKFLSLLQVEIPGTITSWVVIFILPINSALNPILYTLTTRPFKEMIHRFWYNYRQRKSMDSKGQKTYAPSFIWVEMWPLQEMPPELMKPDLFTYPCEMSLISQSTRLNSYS
Assay: OVCAR5 cAMP assay (RXFP1 agonist activity, HTRF)
Conditions: for Emax: OVCAR-5, read-out: cAMP assay in OVCAR 5 cells Emax, maximal intracellular cAMP relative to H2-relaxin in the same test occasion; for EC50: cAMP assay in OVCAR 5 cells EC50 (nM), OVCAR5 cells expressing endogenous RXFP1, cAMP by HTRF, 30 min at 37° C., 1 mM IBMX

| SMILES | Emax [%] | EC50 [nM] |
| --- | --- | --- |
| CC[C@H](C)[C@H](NC(=O)[C@H](CCC(N)=O)NC(=O)[C@H](C)NC(=O)[C@H](CCCNC(=N)N)NC(=O)[C@@H](NC(=O)[C@H](CCCCN)NC(=O)[C@H](CCC(=O)O)NC(=O)[C@H](CCCNC(=N)N)NC(=O)CNC(=O)[C@H](CCC(=O)O)NC(=O)[C@H](CC(C)C)NC(C)=O)C(C)C)C(=O)NC(C)(C)C(=O)NC(C)(C)C(=O)N[C@@H](CCC(=O)O)C(=O)NCC(=O)N[C@@H](CCSC)C(=O)N[C@@H](CO)C(=O)N[C@@](C)(CO)C(=O)N[C@@H](Cc1c[nH]c2ccccc12)C(=O)N[C@@H](CO)C(=O)N[C@@H](CCCCN)C(=O)N[C@@H](CCCNC(=N)N)C(N)=O [compound 39] (Ac-LEGREKVRAQI[Aib][Aib]EGMS[αMeS]WSKR-NH2) | 99 | 9.5 |
| CC[C@H](C)[C@H](NC(=O)[C@H](CCC(N)=O)NC(=O)[C@H](C)NC(=O)[C@H](CCCNC(=N)N)NC(=O)[C@@H](NC(=O)[C@H](CCCCN)NC(=O)[C@H](CCC(=O)O)NC(=O)[C@H](CCCNC(=N)N)NC(=O)CNC(=O)[C@H](CCC(=O)O)NC(=O)[C@H](CC(C)C)NC(C)=O)C(C)C)C(=O)NC(C)(C)C(=O)NC(C)(C)C(=O)N[C@@H](CCC(=O)O)C(=O)NCC(=O)N[C@@H](CCSC)C(=O)N[C@@H](CO)C(=O)N[C@H](C(=O)N[C@@H](Cc1c[nH]c2ccccc12)C(=O)N[C@@H](CO)C(=O)N[C@@H](CCCCN)C(=O)N[C@@H](CCCNC(=N)N)C(N)=O)[C@@H](C)O [compound 40] (Ac-LEGREKVRAQI[Aib][Aib]EGMSTWSKR-NH2) | 103 | – |
| CC[C@H](C)[C@H](NC(=O)[C@H](CCC(N)=O)NC(=O)[C@H](C)NC(=O)[C@H](CCCNC(=N)N)NC(=O)[C@@H](NC(=O)[C@H](CCCCN)NC(=O)[C@H](CCC(=O)O)NC(=O)[C@H](CCCNC(=N)N)NC(=O)CNC(=O)[C@H](CCC(=O)O)NC(=O)[C@H](CC(C)C)NC(C)=O)C(C)C)C(=O)NC(C)(C)C(=O)NC(C)(C)C(=O)N[C@@H](CCC(=O)O)C(=O)NCC(=O)N[C@@H](CCSC)C(=O)N[C@@H](CO)C(=O)N[C@H](C(=O)N[C@@H](Cc1c[nH]c2ccccc12)C(=O)N[C@@H](CO)C(=O)NC(C)(C)C(=O)N[C@@H](CCCNC(=N)N)C(N)=O)[C@@H](C)O [compound 41] (Ac-LEGREKVRAQI[Aib][Aib]EGMSTWS[Aib]R-NH2) | 106 | – |
| CC[C@H](C)[C@H](NC(=O)[C@H](CCC(N)=O)NC(=O)C(C)(C)NC(=O)[C@H](CCCNC(=N)N)NC(=O)[C@@H](NC(=O)[C@H](CCCCN)NC(=O)[C@H](CCC(=O)O)NC(=O)[C@H](CCCNC(=N)N)NC(=O)CNC(=O)[C@H](CCC(=O)O)NC(=O)[C@H](CC(C)C)NC(C)=O)C(C)C)C(=O)NC(C)(C)C(=O)NC(C)(C)C(=O)N[C@@H](CCC(=O)O)C(=O)NCC(=O)N[C@@H](CCSC)C(=O)N[C@@H](CO)C(=O)N[C@H](C(=O)N[C@@H](Cc1c[nH]c2ccccc12)C(=O)N[C@@H](CO)C(=O)NC(C)(C)C(=O)N[C@@H](CCCNC(=N)N)C(N)=O)[C@@H](C)O [compound 42] (Ac-LEGREKVR[Aib]QI[Aib][Aib]EGMSTWS[Aib]R-NH2) | 104 | 251 |
| CCCC[C@H](NC(=O)CNC(=O)[C@H](CCC(=O)O)NC(=O)C(C)(C)NC(=O)C(C)(C)NC(=O)[C@@H](NC(=O)[C@H](CCC(N)=O)NC(=O)[C@H](C)NC(=O)[C@H](CCCNC(=N)N)NC(=O)[C@@H](NC(=O)[C@H](CCCCN)NC(=O)[C@H](CCC(=O)O)NC(=O)[C@H](CCCNC(=N)N)NC(=O)CNC(=O)[C@H](CCC(=O)O)NC(=O)[C@H](CC(C)C)NC(C)=O)C(C)C)[C@@H](C)CC)C(=O)N[C@@H](CO)C(=O)N[C@H](C(=O)N[C@@H](Cc1c[nH]c2ccccc12)C(=O)N[C@@H](CO)C(=O)NC(C)(C)C(=O)N[C@@H](CCCNC(=N)N)C(=O)N[C@@H](CCCCN)C(N)=O)[C@@H](C)O [compound 44] (Ac-LEGREKVRAQI[Aib][Aib]EG[Nle]STWS[Aib]RK-NH2) | 101 | – |
| CC[C@H](C)[C@H](NC(=O)[C@H](CCC(N)=O)NC(=O)[C@H](C)NC(=O)[C@H](CCCNC(=N)N)NC(=O)[C@@H](NC(=O)[C@H](CCCCN)NC(=O)[C@H](CCC(=O)O)NC(=O)[C@H](CCCNC(=N)N)NC(=O)CNC(=O)[C@H](CCC(=O)O)NC(=O)[C@H](CC(C)C)NC(C)=O)C(C)C)C(=O)NC(C)(C)C(=O)NC(C)(C)C(=O)N[C@@H](CCC(=O)O)C(=O)NCC(=O)N[C@@H](CCSC)C(=O)N[C@@H](CO)C(=O)N[C@@H](CCCCN)C(=O)N[C@@H](Cc1c[nH]c2ccccc12)C(=O)N[C@@H](CO)C(=O)NC(C)(C)C(=O)N[C@@H](CCCNC(=N)N)C(N)=O [compound 46] (Ac-LEGREKVRAQI[Aib][Aib]EGMSKWS[Aib]R-NH2) | 82 | – |

More lines, now with the values ahead:

| Emax [%] | EC50 [nM] | SMILES |
| --- | --- | --- |
| 104 | – | CC[C@H](C)[C@H](NC(=O)C(C)(C)NC(=O)[C@H](C)NC(=O)[C@H](CCCNC(=N)N)NC(=O)[C@@H](NC(=O)[C@H](CCCCN)NC(=O)[C@H](CCC(=O)O)NC(=O)[C@H](CCCNC(=N)N)NC(=O)CNC(=O)[C@H](CCC(=O)O)NC(=O)[C@H](CC(C)C)NC(C)=O)C(C)C)C(=O)NC(C)(C)C(=O)NC(C)(C)C(=O)N[C@@H](CCC(=O)O)C(=O)NCC(=O)N[C@@H](CCSC)C(=O)N[C@@H](CO)C(=O)N[C@H](C(=O)N[C@@H](Cc1c[nH]c2ccccc12)C(=O)N[C@@H](CO)C(=O)NC(C)(C)C(=O)N[C@@H](CCCNC(=N)N)C(N)=O)[C@@H](C)O [compound 43] (Ac-LEGREKVRA[Aib]I[Aib][Aib]EGMSTWS[Aib]R-NH2) |
| 98 | – | CC[C@H](C)[C@H](NC(=O)[C@H](CCC(N)=O)NC(=O)[C@H](C)NC(=O)[C@H](CCCNC(=N)N)NC(=O)[C@@H](NC(=O)[C@H](CCCCN)NC(=O)[C@H](CCC(=O)O)NC(=O)[C@H](CCCNC(=N)N)NC(=O)CNC(=O)[C@H](CCC(=O)O)NC(=O)[C@H](CC(C)C)NC(C)=O)C(C)C)C(=O)NC(C)(C)C(=O)NC(C)(C)C(=O)N[C@@H](CCC(=O)O)C(=O)NCC(=O)N[C@@H](CCSC)C(=O)N[C@@H](CO)C(=O)N[C@H](C(=O)N[C@@H](Cc1c[nH]c2ccccc12)C(=O)N[C@@H](CO)C(=O)NC(C)(C)C(=O)N[C@@H](CCCNC(=N)N)C(=O)N[C@@H](CCCCN)C(N)=O)[C@@H](C)O [compound 45] (Ac-LEGREKVRAQI[Aib][Aib]EGMSTWS[Aib]RK-NH2) |
| 94 | – | CCCC[C@H](NC(=O)CNC(=O)[C@H](CCC(=O)O)NC(=O)C(C)(C)NC(=O)C(C)(C)NC(=O)[C@@H](NC(=O)[C@H](CCCCNC(C)=O)NC(=O)[C@H](C)NC(=O)[C@H](CCCNC(=N)N)NC(=O)[C@@H](NC(=O)[C@H](CCCCN)NC(=O)[C@H](CCC(=O)O)NC(=O)[C@H](CCCNC(=N)N)NC(=O)CNC(=O)[C@H](CCC(=O)O)NC(=O)[C@H](CC(C)C)NC(C)=O)C(C)C)[C@@H](C)CC)C(=O)N[C@@H](CO)C(=O)N[C@H](C(=O)N[C@@H](Cc1c[nH]c2ccccc12)C(=O)N[C@@H](CO)C(=O)NC(C)(C)C(=O)N[C@@H](CCCNC(=N)N)C(=O)N[C@@H](CCCCN)C(N)=O)[C@@H](C)O [compound 47] (Ac-LEGREKVRAK(Ac)I[Aib][Aib]EG[Nle]STWS[Aib]RK-NH2) |
